We go through 7 compounds from ChEMBL document CHEMBL4425099, “Use of Osmotic Pumps to Establish the Pharmacokinetic-Pharmacodynamic Relationship and Define Desirable Human Performance Characteristics for Aggrecanase Inhibitors” (J Med Chem, 2016).

In data set [1] the target is T1, A disintegrin and metalloproteinase with thrombospondin motifs 4 (Homo sapiens, UniProt O75173).
T1 sequence (O75173 whole entry): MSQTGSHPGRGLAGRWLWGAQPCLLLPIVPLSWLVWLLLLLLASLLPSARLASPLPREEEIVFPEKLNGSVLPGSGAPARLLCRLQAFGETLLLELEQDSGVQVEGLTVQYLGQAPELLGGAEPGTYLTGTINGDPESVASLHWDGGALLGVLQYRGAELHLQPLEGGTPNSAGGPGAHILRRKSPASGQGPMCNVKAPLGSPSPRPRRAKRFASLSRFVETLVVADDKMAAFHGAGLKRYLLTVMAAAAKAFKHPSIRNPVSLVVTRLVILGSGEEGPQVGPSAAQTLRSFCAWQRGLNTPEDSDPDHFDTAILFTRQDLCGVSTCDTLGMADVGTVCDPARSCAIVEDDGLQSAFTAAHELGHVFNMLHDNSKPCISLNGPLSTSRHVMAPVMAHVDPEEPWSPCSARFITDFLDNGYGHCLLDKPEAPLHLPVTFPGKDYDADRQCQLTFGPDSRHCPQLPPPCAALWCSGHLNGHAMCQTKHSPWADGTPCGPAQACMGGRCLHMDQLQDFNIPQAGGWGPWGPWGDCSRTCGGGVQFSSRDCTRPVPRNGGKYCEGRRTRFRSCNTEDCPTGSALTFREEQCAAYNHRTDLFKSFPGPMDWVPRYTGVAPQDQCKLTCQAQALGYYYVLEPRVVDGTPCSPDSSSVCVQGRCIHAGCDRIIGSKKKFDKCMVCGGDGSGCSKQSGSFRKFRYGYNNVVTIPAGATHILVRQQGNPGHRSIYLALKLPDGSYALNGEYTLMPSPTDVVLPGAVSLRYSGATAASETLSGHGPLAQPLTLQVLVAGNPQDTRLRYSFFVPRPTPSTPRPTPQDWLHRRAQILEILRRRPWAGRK
Kind of data set: Inhibition of human ADAMTS4 using 43-mer VQTVTWPDMELPLPRNITEGEARGSVILTVKPIFEVSPSPLKG as substrate measured after 3 hrs by AlphaScreen assay. (Alpha assays give light when donor and acceptor beads are brought close together.)

Data set [2] has as its target 72 kDa type IV collagenase (Homo sapiens, UniProt P08253). Kind of data set: Inhibition of human MMP2 using Mca-PQGL-(3-[2,4-dinitrophenyl]-L-2,3-diaminopropionyl)-AR-OH as substrate measured after 2 to 4 hrs by fluorescence analysis.
In data set [3] the target is Stromelysin-1 (Homo sapiens, UniProt P08254). Kind of data set: Inhibition of human MMP3 using Mca-PQGL-(3-[2,4-dinitrophenyl]-L-2,3-diaminopropionyl)-AR-OH as substrate measured after 2 to 4 hrs by fluorescence analysis.
Chain of Stromelysin-1 (P08254 whole entry, the tested form may be a part): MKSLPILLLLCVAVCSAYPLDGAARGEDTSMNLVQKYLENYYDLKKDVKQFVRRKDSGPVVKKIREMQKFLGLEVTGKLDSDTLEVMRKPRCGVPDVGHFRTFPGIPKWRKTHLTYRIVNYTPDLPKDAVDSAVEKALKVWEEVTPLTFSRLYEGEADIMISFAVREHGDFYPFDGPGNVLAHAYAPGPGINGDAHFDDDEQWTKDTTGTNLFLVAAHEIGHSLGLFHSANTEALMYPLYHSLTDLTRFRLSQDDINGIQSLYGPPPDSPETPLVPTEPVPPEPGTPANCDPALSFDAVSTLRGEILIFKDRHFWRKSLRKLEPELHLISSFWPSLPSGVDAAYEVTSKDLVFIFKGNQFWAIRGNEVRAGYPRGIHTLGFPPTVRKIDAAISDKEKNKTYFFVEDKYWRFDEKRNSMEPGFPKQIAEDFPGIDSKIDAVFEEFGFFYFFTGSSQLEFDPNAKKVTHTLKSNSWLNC
The target in data set [4] is Disintegrin and metalloproteinase domain-containing protein 17 (Homo sapiens, UniProt P78536). Kind of data set: Inhibition of human TACE using Mca-PQGL-(3-[2,4-dinitrophenyl]-L-2,3-diaminopropionyl)-AR-OH as substrate measured after 2 to 4 hrs by fluorescence analysis.
Chain of Disintegrin and metalloproteinase domain-containing protein 17 (P78536 whole entry, the tested form may be a part): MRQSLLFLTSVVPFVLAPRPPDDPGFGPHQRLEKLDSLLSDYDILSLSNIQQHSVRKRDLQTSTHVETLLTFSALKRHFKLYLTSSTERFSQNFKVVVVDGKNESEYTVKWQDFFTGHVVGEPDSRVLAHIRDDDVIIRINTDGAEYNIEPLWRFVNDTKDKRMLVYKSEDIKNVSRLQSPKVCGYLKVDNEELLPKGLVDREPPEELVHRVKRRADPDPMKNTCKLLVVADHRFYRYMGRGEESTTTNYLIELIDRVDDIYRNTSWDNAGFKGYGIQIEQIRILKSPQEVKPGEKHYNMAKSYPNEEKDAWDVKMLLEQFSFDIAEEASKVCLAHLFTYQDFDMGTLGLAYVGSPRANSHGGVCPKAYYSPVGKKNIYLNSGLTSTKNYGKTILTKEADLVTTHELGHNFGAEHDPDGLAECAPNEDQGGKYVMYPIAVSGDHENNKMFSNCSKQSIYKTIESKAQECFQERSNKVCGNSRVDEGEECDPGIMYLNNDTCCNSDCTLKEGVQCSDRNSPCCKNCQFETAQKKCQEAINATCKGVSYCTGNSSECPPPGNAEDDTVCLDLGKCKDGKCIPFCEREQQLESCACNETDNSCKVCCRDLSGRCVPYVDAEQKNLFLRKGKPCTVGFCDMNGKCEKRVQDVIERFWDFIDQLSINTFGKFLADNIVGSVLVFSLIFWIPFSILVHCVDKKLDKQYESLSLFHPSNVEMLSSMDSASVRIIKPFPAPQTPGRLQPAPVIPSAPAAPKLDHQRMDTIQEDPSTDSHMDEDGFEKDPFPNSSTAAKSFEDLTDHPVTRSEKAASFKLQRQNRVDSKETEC
Data set [5] is described as follows: AUC in Lewis rat at 10 mg/kg, po. It is filed as ADME, organism-based. As to conditions: in vivo.
Data set [6] deals with Rattus norvegicus. Kind of data set: Reduction in ADAMTS-4/ADAMTS-5 mediated aggrecan cleavage products in Lewis rat model of MIA assessed as aggrecanase-cleaved fragments at 30 mg/kg, po bid administered post 3 days MIA induction measured after 4 hrs of last dosage on day 7 by NITEGE sandwich ELISA. It counts as functional. (In general: An ELISA detects its analyte on a solid surface through an enzyme-linked reagent.)

Data set [7] is described as follows: Plasma concentration in Lewis rat model of MIA at 10 mg/kg, po bid administered post 3 days MIA induction measured after 4 hrs of last dosage on day 7. It is filed as ADME, organism-based.
Data set [8] is described as follows: Plasma concentration in Lewis rat model of MIA at 30 mg/kg, po bid administered post 3 days MIA induction measured after 4 hrs of last dosage on day 7. It counts as ADME, organism-based.
A short description of data set [9]: Ratio of plasma concentration in Lewis rat model of MIA at 10 mg/kg, po bid administered post 3 days MIA induction measured after 4 hrs of last dosage on day 7 to IC50 for human ADAMTS5 in presence of Lewis rat plasma. It is filed as ADME, organism-based. Particulars: in vivo.
A short description of data set [10]: Ratio of plasma concentration in Lewis rat model of MIA at 100 mg/kg, po bid administered post 3 days MIA induction measured after 4 hrs of last dosage on day 7 to IC50 for human ADAMTS5 in presence of Lewis rat plasma. It counts as ADME, organism-based. Particulars: in vivo.
The target in data set [11] is T2, ADAMTS5 (Rattus norvegicus) (UniProt Q6TY19).
T2 sequence (whole entry): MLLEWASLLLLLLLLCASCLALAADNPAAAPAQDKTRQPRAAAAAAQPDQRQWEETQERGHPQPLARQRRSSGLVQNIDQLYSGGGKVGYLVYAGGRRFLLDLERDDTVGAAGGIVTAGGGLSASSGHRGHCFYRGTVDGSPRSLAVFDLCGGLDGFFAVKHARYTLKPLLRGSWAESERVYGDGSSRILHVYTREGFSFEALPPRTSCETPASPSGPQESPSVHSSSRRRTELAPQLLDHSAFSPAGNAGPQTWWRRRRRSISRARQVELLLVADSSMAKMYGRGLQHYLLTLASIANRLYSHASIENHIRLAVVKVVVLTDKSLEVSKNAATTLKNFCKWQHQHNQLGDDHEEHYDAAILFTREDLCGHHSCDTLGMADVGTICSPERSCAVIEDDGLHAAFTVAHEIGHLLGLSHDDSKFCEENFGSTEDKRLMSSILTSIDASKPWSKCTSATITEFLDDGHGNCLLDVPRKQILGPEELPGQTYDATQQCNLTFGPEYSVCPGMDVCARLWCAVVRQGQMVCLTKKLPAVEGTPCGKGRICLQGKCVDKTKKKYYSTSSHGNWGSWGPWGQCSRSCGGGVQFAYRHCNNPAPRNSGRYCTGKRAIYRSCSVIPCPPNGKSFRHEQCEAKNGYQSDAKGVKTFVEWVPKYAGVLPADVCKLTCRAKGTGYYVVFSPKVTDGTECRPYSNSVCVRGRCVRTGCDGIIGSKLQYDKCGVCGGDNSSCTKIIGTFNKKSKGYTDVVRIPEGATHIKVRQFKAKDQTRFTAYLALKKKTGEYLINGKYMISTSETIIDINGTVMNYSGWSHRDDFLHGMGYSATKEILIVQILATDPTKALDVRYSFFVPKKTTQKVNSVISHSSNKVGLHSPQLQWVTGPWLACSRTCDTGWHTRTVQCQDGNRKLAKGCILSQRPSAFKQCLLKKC
Kind of data set: Inhibition of rat ADAMTS5 using 43-mer VQTVTWPDMELPLPRNITEGEARGSVILTVKPIFEVSPSPLKG as substrate measured after 3 hrs by AlphaScreen assay.

The species named for data set [12] is Homo sapiens. Kind of data set: Selectivity ratio of IC50 for human TACE to IC50 for human ADAMTS4.
For data set [13], the species on record is Homo sapiens. Kind of data set: Selectivity ratio of IC50 for human MMP9 to IC50 for human ADAMTS5.
The species named for data set [14] is Homo sapiens. Kind of data set: Selectivity ratio of IC50 for human MMP14 to IC50 for human ADAMTS5.
For data set [15], the species on record is Homo sapiens. Kind of data set: Selectivity ratio of IC50 for human TACE to IC50 for human ADAMTS5.

Activity calls are given as the source filed them. No cut-off for these calls is given here. Where only a bound is given, the exact number is not on record here.

Chain of 72 kDa type IV collagenase (P08253 whole entry): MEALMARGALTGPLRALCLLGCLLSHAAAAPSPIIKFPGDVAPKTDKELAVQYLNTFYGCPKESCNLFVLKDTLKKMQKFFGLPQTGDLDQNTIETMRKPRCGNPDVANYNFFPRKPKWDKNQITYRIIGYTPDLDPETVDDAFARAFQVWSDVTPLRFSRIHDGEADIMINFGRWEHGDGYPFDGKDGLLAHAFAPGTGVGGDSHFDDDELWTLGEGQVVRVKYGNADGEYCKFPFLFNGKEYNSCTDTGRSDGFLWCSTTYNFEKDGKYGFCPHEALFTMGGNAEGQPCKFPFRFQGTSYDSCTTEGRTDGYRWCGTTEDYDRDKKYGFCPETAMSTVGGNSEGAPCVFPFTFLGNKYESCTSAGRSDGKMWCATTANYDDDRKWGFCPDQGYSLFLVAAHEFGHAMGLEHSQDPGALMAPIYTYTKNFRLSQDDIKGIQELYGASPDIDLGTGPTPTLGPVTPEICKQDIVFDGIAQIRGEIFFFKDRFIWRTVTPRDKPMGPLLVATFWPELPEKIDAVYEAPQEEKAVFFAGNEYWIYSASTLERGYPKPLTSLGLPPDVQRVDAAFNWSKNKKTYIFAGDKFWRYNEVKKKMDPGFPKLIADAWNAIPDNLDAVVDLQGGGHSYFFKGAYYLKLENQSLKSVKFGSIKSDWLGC

In general, IC50 refers to the point on the concentration scale where inhibition reaches its midpoint. A higher IC50 goes with weaker potency in that assay. One may read the AUC as the area under the concentration-time curve, a measure of exposure. The term inhibition in vivo denotes the change of the read-out against control, counted positive when it falls. Regarding `Cc1cnc([C@]2(CNC(=O)c3cc4cc(C(F)(F)F)ccc4o3)NC(=O)NC2=O)n1C`, the IC50 in [1] was found to be 0.004 µM; in [2] it was 11 µM; in data set [3] it was 51 µM; in [4], 10 µM. The same compound came in with an AUC in data set [5] of 21 µM·h. In addition, the inhibition in vivo at 30 mg/kg in data set [6] turned out to be 45%. Moreover, the concentration at 4 h in [7] is 1400 nM; in data set [8] it was 4800 nM. Moreover, the Ratio is 22 in data set [9] and 490 in data set [10]. The inhibition entry in data set [11] is “Active”. Further, the Ratio IC50 in [12], in data set [13], in [14] and in data set [15] was more than 1000 throughout.
In the case of `Cc1cnc([C@]2(CNC(=O)c3cc4cc(Cl)ccc4o3)NC(=O)NC2=O)n1C`, the half-maximal inhibitory concentration (IC50) in data set [1] was determined as 0.006 µM; in data set [2], 2.4 µM; in [3], 7.1 µM; in data set [4] it was 8.9 µM. This compound also came in with an AUC in [5] of 27 µM·h. The inhibition entry in data set [11] was “Active”. Moreover, the Ratio IC50 in data set [12], in [13], in data set [14] and in data set [15] was more than 1000 in each case.
Consider `CCn1ccnc1[C@]1(CNC(=O)c2cc3cc(Cl)ccc3o2)NC(=O)NC1=O`, for which the IC50 in data set [1] was determined as 0.008 µM; in data set [2] it was 3.5 µM; in [3], 23 µM; in data set [4] it was 10 µM. The AUC in data set [5] was found to be 20 µM·h. Further, in [11], the inhibition entry is “Active”. In addition, the Ratio IC50 in data set [12], in [13], in data set [14] and in [15] was more than 1000 in each case.
As for `CCn1ccnc1[C@]1(CNC(=O)c2cc3cc(C(F)(F)F)ccc3o2)NC(=O)NC1=O`, the IC50 in data set [1] was 0.004 µM; in data set [2] it was 11 µM; in [3] it was 60 µM; in data set [4], 10 µM. Moreover, in data set [5], the area under the curve (AUC) worked out at 28 µM·h. In addition, the inhibition in vivo at 30 mg/kg in data set [6] came to 35%. The concentration at 4 h in data set [7] stood at 930 nM; in data set [8], 3600 nM. Also, the Ratio stood at 14 in data set [9] and 160 in data set [10]. For the same compound, in data set [11], the inhibition result is “Active”. Also, the Ratio IC50 in data set [12], in [13], in [14] and in data set [15] was more than 1000 in each case.
Turning to `Cn1ccnc1[C@]1(CNC(=O)c2cc3cc(C(F)(F)F)ccc3o2)NC(=O)NC1=O`, the inhibition in vivo at 30 mg/kg in data set [6] worked out at 53%. The concentration at 4 h in data set [7] stood at 510 nM; in data set [8], 1600 nM. For the same compound, the Ratio in data set [9] is reported as 15; in data set [10], 310. For the same compound, the inhibition entry in data set [11] was “Active”. Further, the Ratio IC50 in data set [12], in data set [13], in data set [14] and in [15] was more than 1000 throughout.
For the compound `O=C1NC(=O)[C@](CNC(=O)c2cc3cc(C(F)(F)F)ccc3o2)(C2CC2)N1`, the IC50 in [1] amounted to 0.006 µM; in data set [2], 5.8 µM; in data set [3], 17 µM. The inhibition entry in [11] is “Active”. Also, the Ratio IC50 in data set [12], in [13], in [14] and in [15] was more than 1000 each time.
For `Cn1ccnc1[C@]1(CNC(=O)c2cc3cc(Cl)ccc3o2)NC(=O)NC1=O`, the half-maximal inhibitory concentration (IC50) in data set [1] was found to be 0.003 µM; in [2], 3.2 µM; in [3], 23 µM; in data set [4], 10 µM. Also, the inhibition entry in data set [11] is “Active”. In addition, the Ratio IC50 in data set [12], in data set [13], in data set [14] and in [15] was more than 1000 in each case.
